In publication PMC6150197, “NeoBOMB1, a GRPR-Antagonist for Breast Cancer Theragnostics: First Results of a Preclinical Study with [^67Ga]NeoBOMB1 in T-47D Cells and Tumor-Bearing Mice” (Molecules : A Journal of Synthetic Chemistry and Natural …, 2017) one finds IC50 data, which are given here for two molecules.

Where two headings read alike, the source gives them in different places. Square brackets hold non-standard residues; d marks the D form. * marks the point of attachment. DOTA = O=C(O)CN1CCN(CC(=O)O)CCN(CC(=O)*)CCN(CC(=O)O)CC1

For the experiment, the target named is T1, GRPR (Homo sapiens, UniProt P30550).
T1 construct: Human ductal breast carcinoma T-47D cells endogenously expressing the GRPR were used in all biological assays; endogenous in cells; host or cells: T-47D human ductal breast carcinoma cells (live, adherent, 4 °C)
The experiment is described as follows: Competition binding against [^125I-Tyr^4]BBN in T-47D cells.

T1 sequence (P30550 whole entry): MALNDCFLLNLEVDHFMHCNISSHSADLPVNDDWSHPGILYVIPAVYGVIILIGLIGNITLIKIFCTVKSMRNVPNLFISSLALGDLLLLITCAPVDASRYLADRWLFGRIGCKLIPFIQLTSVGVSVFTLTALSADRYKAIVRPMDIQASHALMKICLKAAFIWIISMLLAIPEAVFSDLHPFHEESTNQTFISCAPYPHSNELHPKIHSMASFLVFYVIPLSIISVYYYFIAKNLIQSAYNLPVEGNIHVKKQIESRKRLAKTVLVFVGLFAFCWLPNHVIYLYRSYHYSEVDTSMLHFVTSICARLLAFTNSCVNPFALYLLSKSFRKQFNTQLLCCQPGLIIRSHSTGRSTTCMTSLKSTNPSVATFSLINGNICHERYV
Description: Methionine was added to the purified radioligand solution to prevent re-oxidation of Met^14 to the corresponding sulfoxide and the resulting stock solution in 0.1% BSA-PBS was kept at −20 °C; aliquots thereof were used for competition binding assays (specific activity of 2.2 Ci/μmol). Samples were measured for radioactivity in an automatic well-type gamma counter (NaI(Tl)] crystal, Canberra Packard Auto-Gamma 5000 series instrument, Schwadorf, Austria).
Human ductal breast carcinoma T-47D cells endogenously expressing the GRPR were used in all biological assays [14, 22, 23]. Cells were cultured in RPMI supplemented with 10% FBS, 100 U/mL penicillin and 100 µg/mL streptomycin, and kept in a controlled humidified atmosphere containing 5% CO2 at 37 °C. Passages were performed weekly using a trypsin/EDTA (0.05%/0.02% w/v) solution.
Cells were seeded in 12-well plates 24 h in advance (0.6 × 10^6 cells per well). On the day of the experiment, cells were placed on ice and washed with chilled washing medium (2 × 1 mL, RPMI supplemented with 1% heat inactivated FBS). […] Lysates were collected, combined and counted for their radioactivity content in a γ-counter. The IC50 values were calculated adopting nonlinear regression according to a one-site model applying the PRISM^TM 2 program (GraphPad Software, San Diego, CA, USA). […]

Consider `CC(C)CC(CC(C)C)NC(=O)[C@H](Cc1cnc[nH]1)NC(=O)CNC(=O)[C@@H](NC(=O)[C@H](C)NC(=O)[C@H](Cc1c[nH]c2ccccc12)NC(=O)[C@H](CCC(N)=O)NC(=O)[C@@H](Cc1ccccc1)NC(=O)COCC(=O)Nc1ccc(CNC(=O)CN2CCN(CC(=O)O)CCN(CC(=O)O)CCN(CC(=O)O)CC2)cc1)C(C)C` [NeoBOMB1, DOTA-p-aminomethylaniline-diglycolic acid-DPhe-Gln-Trp-Ala-Val-Gly-His-NH-CH[CH2-CH(CH3)2]2], for which the IC50 (usually the concentration that inhibits the measured activity by half) came out at 2.2 ± 0.2 nM.
For the molecule “[^natGa]NeoBOMB1: NeoBOMB1 metalated with ^natGa ({DOTA-p‑aminomethylaniline-diglycolic acid}-[dF]QWAVGH-{2,6‑dimethylheptan‑4‑yl amide}; also: DOTA chelating natGa(III))”, the IC50 (live T-47D cells, 3 h incubation at 4 °C, one-site model, mean ± sd, n = 3 (n = 5 for [Tyr^4]BBN), in triplicate, read-out: IC50, displacement of [^125I-Tyr^4]BBN from GRPR-sites on T-47D cells) was determined as 2.5 ± 0.2 nM.
